For experiment [1], the system named is constitutive active colorectal cancer cell (CRC) Wnt pathway. The experiment is described as follows: HCT116 Super TopFlash cellular reporter assay (constitutive active Wnt pathway). The class given is cell-based. The settings on record: Homo sapiens, HCT-116, 36 h, HCT116 TOP reporter cells, luciferase expression, 36 hours incubation, 50 μM to 15 nM. On the procedure: In order to discover and characterize small molecules which inhibit the constitutive active colorectal cancer cell (CRC) Wnt pathway, a cellular reporter assay was employed. The corresponding assay cell was generated by transfection of the colorectal cancer cell line HCT116 (ATCC, #CCL-247) with the Super TopFlash vector (Morin, Science 275, 1997, 1787-1790; Molenaar et al., Cell 86 (3), 1996, 391-399). The HCT116 cell line is cultivated at 37° C. and 5% CO2 in DMEM/F-12 (Life Technologies, #11320-074), supplemented with 2 mM glutamine, 20 mM HEPES, 1.4 mM pyruvate, 0.15% Na-bicarbonate and 10% foetal bovine serum (GIBCO, #10270), this cancer cell line is pathophysiological relevant since it carries a deletion of position S45 in the β-catenin gene, leading to constitutive active Wnt signaling. Stable transfectants were generated by cotransfection with pcDNA3 and selection of stable transfected cells with 1 mg/ml G418.
(§1) In a parallel approach, HCT116 cells were cotransfected with the FOP control vector and pcDNA3. The FOP vector is identical to the TOP construct, but it contains instead of functional TCF elements a randomized, non-functional sequence. For this transfection a stable transfected cell line was generated as well.
(§2) In preparation of the assay, the two cell lines were plated 24 hrs before at 10000 cells per well of a 384 micro titre plate (MTP) in 30 μL growth medium. Selective inhibitory activity for small molecules on the mutated Wnt pathway was determined after parallel incubation of both (TOP and FOP) HCT116 reporter cell lines with a compound dilution series from 50 μM to 15 nM in steps of 3.16-fold dilutions in CAFTY buffer (130 mM NaCl, 5 mM KCl, 20 mM HEPES, 1 mM MgCl2, 5 mM NaHCO3, pH 7.4) containing 2 mM Ca^2+ and 0.01% BSA. The compounds were thereby serially prediluted in 100% DMSO and thereafter in addition 50 fold into the CAFTY compound dilution buffer (described above). From this dilution 10 μL were added to the cells in 30 μL growth medium and incubated for 36 hours at 37° C. and 5% CO2. Thereafter luciferase assay buffer (1:1 mixture of luciferase substrate buffer (20 mM Tricine, 2.67 mM MgSO4, 0.1 mM EDTA, 4 mM DTT, 270 μM Coenzyme A, 470 μM Luciferin, 530 μM ATP, ph adjusted to pH 7.8 with a sufficient volume of 5M NaOH) and Triton buffer (30 mL Triton X-100, 115 mL glycerol, 308 mg Dithiothreitol, 4.45 g Na2HPO4.2 H2O, 3.03 g Tris.HCL, ad 1 l H20, pH 7.8) was added as equal volume to the compound solution on the cells to determine luciferase expression as a measure of Wnt signaling activity in a luminometer.
In general terms: Reporter assays use an easily measured gene product as a stand-in for the process of interest.

For experiment [2], the system named is HCT116 FOP control reporter cell line. In words: HCT116 FOP control vector reporter assay (non-functional TCF elements). It is filed as cell-based. The note with it: Homo sapiens, HCT-116, 36 h, HCT116 FOP control reporter cells, luciferase expression, 36 hours incubation, 50 μM to 15 nM; read-out: HCT116 FOPFlash IC50. On the procedure: as §1, §2

A value given as a limit tells only on which side of the number the result lay.

One may read the IC50 as the concentration that gives 50% inhibition. On to `C[C@H](C(=O)Nc1cc(NC(=O)c2ccc(-c3ccccc3)cc2)ccc1F)N1CCOCC1` [Example 31, N-(4-fluoro-3-{[(2R)-2-(morpholin-4-yl)propanoyl]amino}phenyl)biphenyl-4-carboxamide], for which the figures for the IC50 in experiment [1] and in experiment [2] were 3.83 µM and at least 50 µM, respectively.

As for `COc1ccc(NC(=O)c2ccc(-c3ccccc3)cc2)cc1NC(=O)CN1CCO[C@@H](CO)C1` [Example 34, N-[3-({[(2R)-2-(hydroxymethyl)morpholin-4-yl]acetyl}amino)-4-methoxyphenyl]biphenyl-4-carboxamide], the IC50 was 1.06 µM in experiment [1] and at least 50 µM in experiment [2].

As to `COc1ccc(NC(=O)c2ccc(-c3ccccc3)cc2)cc1NC(=O)CN1CCCC(OC)C1` (centres unmarked) [Example 38, N-(4-methoxy-3-{[(3-methoxypiperidin-1-yl)acetyl]amino}phenyl)biphenyl-4-carboxamide], the IC50 in experiment [1] is 2 µM; in experiment [2], at least 50 µM.

With `COCCNCC(=O)Nc1cc(NC(=O)c2ccc(-c3ccccc3)cc2)ccc1OC` [Example 42, N-(4-methoxy-3-{[N-(2-methoxyethyl)glycyl]amino}phenyl)biphenyl-4-carboxamide], the figures for the IC50 in experiment [1] and in experiment [2] were 1.11 µM and at least 50 µM, respectively.

In the case of `COc1ccc(NC(=O)c2ccc(-c3ccccc3)cc2)cc1NC(=O)CN1CCOC[C@H]1CCO` [Example 44, N-[3-({[(3R)-3-(2-hydroxyethyl)morpholin-4-yl]acetyl}amino)-4-methoxyphenyl]biphenyl-4-carboxamide], the IC50 in experiment [1] was 2.9 µM; in experiment [2] it was at least 50 µM.

Consider `COc1ccc(NC(=O)c2ccc(-c3ccccc3)cc2)cc1NC(=O)CN1CCC(O)CC1` [Example 45, N-(3-{[(4-hydroxypiperidin-1-yl)acetyl]amino}-4-methoxyphenyl)biphenyl-4-carboxamide], for which the IC50 in experiment [1] is 3.85 µM; in experiment [2], at least 50 µM.

As for `COc1ccc(NC(=O)c2ccc(-c3ccccc3)cc2)cc1NC(=O)CN1CCC2(CCO2)C1` (centres unmarked) [Example 46, N-{4-methoxy-3-[(1-oxa-6-azaspiro[3.4]oct-6-ylacetyl)amino]phenyl}biphenyl-4-carboxamide], the IC50 was 3.45 µM in experiment [1] and at least 50 µM in experiment [2].

Consider `COc1ccc(NC(=O)c2ccc(-c3ccccc3)cc2)cc1NC(=O)CN1CCN(C)CC1` [Example 47, N-(4-methoxy-3-{[(4-methylpiperazin-1-yl)acetyl]amino}phenyl)biphenyl-4-carboxamide], for which the values for the IC50 in experiment [1] and in experiment [2] were 0.718 µM and 33.5 µM, respectively.

Turning to `COCCN(C)CC(=O)Nc1cc(NC(=O)c2ccc(-c3ccccc3)cc2)ccc1OC` [Example 49, N-(4-methoxy-3-{[N-(2-methoxyethyl)-N-methylglycyl]amino}phenyl)biphenyl-4-carboxamide], the IC50 was 2.65 µM in experiment [1] and at least 50 µM in experiment [2].

For the compound `CCN1CCN(CC(=O)Nc2cc(NC(=O)c3ccc(-c4ccccc4)cc3)ccc2OC)CC1` [Example 50, N-(3-{[(4-ethylpiperazin-1-yl)acetyl]amino}-4-methoxyphenyl)biphenyl-4-carboxamide], the IC50 in experiment [1] was 3.64 µM; in experiment [2] it was 23 µM.

For `COc1ccc(NC(=O)c2ccc(-c3ccccc3)cc2)cc1NC(=O)CN1CCN(S(C)(=O)=O)CC1` [Example 51, N-[4-methoxy-3-({[4-(methylsulfonyl)piperazin-1-yl]acetyl}amino)phenyl]biphenyl-4-carboxamide], the IC50 is 3.18 µM in experiment [1] and at least 50 µM in experiment [2].

On to `COc1ccc(NC(=O)c2ccc(-c3ccccc3)cc2)cc1NC(=O)CN1CCOCC1` [Example 52, N-{4-methoxy-3-[(morpholin-4-ylacetyl)amino]phenyl}biphenyl-4-carboxamide], for which the figures for the IC50 in experiment [1] and in experiment [2] were 0.47 µM and at least 50 µM, respectively.

For the compound `COc1ccc(NC(=O)c2ccc(-c3ccccc3)cc2)cc1NC(=O)[C@H](C)N1CCOCC1` [Example 54, N-(4-methoxy-3-{[(2S)-2-(morpholin-4-yl)propanoyl]amino}phenyl)biphenyl-4-carboxamide], the IC50 is 0.35 µM in experiment [1] and at least 50 µM in experiment [2].

`COc1ccc(NC(=O)c2ccc(-c3ccccc3)cc2)cc1NC(=O)[C@@H](C)N1CCOCC1` [Example 55, N-(4-methoxy-3-{[(2R)-2-(morpholin-4-yl)propanoyl]amino}phenyl)biphenyl-4-carboxamide]: the IC50 in experiment [1] is 0.834 µM; in experiment [2], at least 50 µM.

In the case of `COc1ccc(NC(=O)c2ccc(-c3ccccc3)cc2)cc1NC(=O)[C@@H](C)N1CC2CCC(C1)O2` [Example 57, N-(4-methoxy-3-{[(2R)-2-(8-oxa-3-azabicyclo[3.2.1]oct-3-yl)propanoyl]amino}phenyl)biphenyl-4-carboxamide], the 50% inhibitory concentration (IC50) in experiment [1] was 0.49 µM; in experiment [2] it was at least 50 µM.

For the compound `C[C@H](C(=O)Nc1cc(NC(=O)c2ccc(-c3ccccc3)cc2)ccc1OC(F)(F)F)N1CC2CCC(C1)O2` [Example 60, N-[3-{[(2R)-2-(8-oxa-3-azabicyclo[3.2.1]oct-3-yl)propanoyl]amino}-4-(trifluoromethoxy)phenyl]biphenyl-4-carboxamide], the IC50 in experiment [1] was 0.582 µM; in experiment [2], at least 50 µM.

With `C[C@H](C(=O)Nc1cc(NC(=O)c2ccc(-c3ccccc3)cc2)ccc1OC(F)(F)F)N1CCOCC1` [Example 63, N-[3-{[(2R)-2-(morpholin-4-yl)propanoyl]amino}-4-(trifluoromethoxy)phenyl]biphenyl-4-carboxamide], the half-maximal inhibitory concentration (IC50) in experiment [1] was 0.265 µM; in experiment [2], at least 50 µM.

Consider `COc1ccc(NC(=O)c2ccc(-c3ccccc3)cc2)cc1N(Cc1ccccc1)C(=O)CN1CCOCC1` [Example 64, N-{3-[benzyl(morpholin-4-ylacetyl)amino]-4-methoxyphenyl}biphenyl-4-carboxamide], for which the IC50 in experiment [1] was determined as 3.5 µM; in experiment [2], 48 µM.

As to `COc1ccc(NC(=O)c2ccc(-c3ccccc3)cc2)cc1N(C)C(=O)CN1CCOCC1` [Example 65, N-{4-methoxy-3-[methyl(morpholin-4-ylacetyl)amino]phenyl}biphenyl-4-carboxamide], the values for the IC50 in experiment [1] and in experiment [2] were 2.2 µM and 28 µM, respectively.

As to `CC(C)(C)c1ccc(NC(=O)c2ccc(-c3ccccc3)cc2)cc1NC(=O)CN1CCOCC1` [Example 67, N-{4-tert-butyl-3-[(morpholin-4-ylacetyl)amino]phenyl}biphenyl-4-carboxamide], the IC50 stood at 0.21 µM in experiment [1] and 9.8 µM in experiment [2].

Turning to `O=C(CN1CCOCC1)Nc1cc(NC(=O)c2ccc(-c3ccccc3)cc2)ccc1Br` [Example 68, N-{4-bromo-3-[(morpholin-4-ylacetyl)amino]phenyl}biphenyl-4-carboxamide], the IC50 in experiment [1] is 0.513 µM; in experiment [2], at least 50 µM.

On to `O=C(CN1CCOCC1)Nc1cc(NC(=O)c2ccc(-c3ccccc3)cc2)ccc1Cl` [Example 69, N-{4-chloro-3-[(morpholin-4-ylacetyl)amino]phenyl}biphenyl-4-carboxamide], for which the IC50 in experiment [1] is 0.81 µM; in experiment [2] it was 9.3 µM.

For the compound `Cc1ccc(NC(=O)c2ccc(-c3ccccc3)cc2)cc1NC(=O)CN1CCOCC1` [Example 70, N-{4-methyl-3-[(morpholin-4-ylacetyl)amino]phenyl}biphenyl-4-carboxamide], the IC50 in experiment [1] is 1.35 µM; in experiment [2], at least 50 µM.

As to `COC(=O)c1cccc(-c2ccc(C(=O)Nc3ccc(OC)c(NC(=O)CN4CCOCC4)c3)cc2)c1` [Example 77, methyl 4′-({4-methoxy-3-[(morpholin-4-ylacetyl)amino]phenyl}carbamoyl)biphenyl-3-carboxylate], the half-inhibitory concentration (IC50) in experiment [1] is 3.95 µM; in experiment [2] it was at least 50 µM.

On to `COc1ccc(NC(=O)c2ccc(-c3cccc(C(F)(F)F)c3)cc2)cc1NC(=O)CN1CCOCC1` [Example 78, N-{4-methoxy-3-[(morpholin-4-ylacetyl)amino]phenyl}-3′-(trifluoromethyl)biphenyl-4-carboxamide], for which the IC50 in experiment [1] is 2.9 µM; in experiment [2] it was at least 50 µM.

Source of the values: patent US20160052898A1, “NOVEL COMPOUNDS” (BAYER PHARMA AKTIENGESELLSCHAFT, priority 2013, published 2016).
